Source: patent US5480887A, “Protease inhibitors” (Eli Lilly and Company, priority 1994, dated 1996)
Like-named read-outs stand apart in the source and are kept apart here. Values belong to the compound of their own block, whether it stands above or below them.

What was measured:
HIV-1 Protease = target: T1, HIV-1 Protease (Human immunodeficiency virus type 1 group M subtype B, UniProt P04585); assay: biochemical; settings: for IC50: read-out: Fluorescence Assay IC50 (converted); for inhibition at 0.00016 µg/mL: read-out: % inhibition at the stated concentration (ICx (0.16))
T1 construct: HIV-1 Protease
Procedure: These compounds may be assayed using two assays: (1) an enzyme inhibition assay, and (2) an antiviral cell culture assay.
This assay is described in detail in published European Patent Application (EPA) 0 526 009, herein incorporated by reference. Using this assay, a number of the compounds, prepared above, were assayed for HIV protease inhibitory activity.
The assay is unable to test compounds at less than a concentration of 0.16 ng/mL.

HIV = assay: microbe, parasite or virus in culture; format: cell-based; settings: XTT, 450 nm, * (n) = average of n assays, read-out: Antiviral Activity IC90
Procedure: In addition, the compounds described in the present application may be tested using an antiviral cell culture assay as described in Weislow, O.S., J. of National Cancer Institute, 81(8), pages 577-586 (Apr. 19, 1989) herein incorporated by reference.
This assay compares the viability of HIV-infected cells in a cell culture medium relative to the viability of such cells in the presence of a test compound. The concentration of test compound necessary to inhibit 90% of the virus is then measured using the viability of the cells as an indicator of viral inhibition. This assay is carried out using cell lines that are sensitive to the lyric effects of HIV infection.
Specifically, this assay utilizes the metabolic reduction of a tetrazolium reagent, 2,3-bis[2-methoxy-4-nitro-5-sulfophenyl]-5-[(phenylamino)carbonyl]-2H-tetrazolium hydroxide (XTT). In the presence of a viable cell, the tetrazolium reagent, XTT, is reduced to provide XTT formazan which may be quantified using colorimetric determination (at 450 nm). The intensity of the chromogenic signal is directly proportional to the concentration of the XTT formazan, thus providing a measure of the quantity of viable cells.

[1] = concentration inhibiting 50% of the enzyme, * = calculated average with n number of assays
[2] = Human immunodeficiency virus 1, concentration inhibiting 90% of the viral-induced toxicity
[3] = at 0.16 ng/mL, lowest testable concentration
[4] = concentration inhibiting 90% of the viral-induced toxicity

IC50 (HIV-1 Protease; [1]): 2.62 nM
Structure (SMILES): CC(C)[C@@H]1SCC[C@@H]1OC(=O)N[C@@H](CSc1ccccc1)[C@H](O)CN1C[C@H]2CCS[C@H]2C[C@H]1C(=O)NC(C)(C)C [9B-23 mg sample]
IC90 (HIV; [2]): 604 nM

inhibition at 0.00016 µg/mL (HIV-1 Protease; [3]): 53%
Structure (SMILES): CC(C)[C@H]1SCC[C@H]1OC(=O)N[C@@H](CSc1ccccc1)[C@H](O)CN1C[C@H]2CCS[C@H]2C[C@H]1C(=O)NC(C)(C)C [9B-24 mg sample]
IC90 (HIV; [2]): 78 nM

Structure (SMILES): CC(C)[C@H]1[C@@H](OC(=O)N[C@@H](CSc2ccccc2)[C@H](O)CN2C[C@H]3CCS[C@H]3C[C@H]2C(=O)NC(C)(C)C)CCS1(=O)=O [10B-51 mg sample]
IC50 (HIV-1 Protease): 0.95 nM
IC90 (HIV; [2]): 77 nM

Structure (SMILES): CC(C)[C@@H]1[C@H](OC(=O)N[C@@H](CSc2ccccc2)[C@H](O)CN2C[C@H]3CCS[C@H]3C[C@H]2C(=O)NC(C)(C)C)CCS1(=O)=O [10B-52 mg sample]
IC50 (HIV-1 Protease): 0.421 nM
IC90 (HIV; [2]): 9 nM

IC50 (HIV-1 Protease; [1]): 2 nM
Structure (SMILES): CC(C)(C)NC(=O)[C@@H]1C[C@@H]2SCC[C@@H]2CN1C[C@@H](O)[C@H](CSc1ccccc1)NC(=O)O[C@H]1CCS(=O)(=O)C1 [11C-6 mg sample]
IC90 (HIV; [2]): 29 nM

IC50 (HIV-1 Protease; [1]): 1.52 nM
Structure (SMILES): CC(C)(C)NC(=O)[C@@H]1C[C@@H]2SCC[C@@H]2CN1C[C@@H](O)[C@H](CSc1ccccc1)NC(=O)O[C@@H]1CCS(=O)(=O)C1 [11C-11 mg sample]
IC90 (HIV; [2]): 26 nM

IC50 (HIV-1 Protease): 2.72 nM
Structure (SMILES): C[C@H]1OCC[C@H]1OC(=O)N[C@@H](CSc1ccccc1)[C@H](O)CN1C[C@H]2CCS[C@H]2C[C@H]1C(=O)NC(C)(C)C [13B-17 mg sample]
IC90 (HIV; [2]): 880 nM

inhibition at 0.00016 µg/mL (HIV-1 Protease): 71%
Structure (SMILES): C[C@@H]1OCC[C@@H]1OC(=O)N[C@@H](CSc1ccccc1)[C@H](O)CN1C[C@H]2CCS[C@H]2C[C@H]1C(=O)NC(C)(C)C [13B-26 mg sample]
IC90 (HIV; [2]): 90 nM

Structure (SMILES): C[C@@H]1[C@H](OC(=O)N[C@@H](CSc2ccccc2)[C@H](O)CN2C[C@H]3CCS[C@H]3C[C@H]2C(=O)NC(C)(C)C)CCS1(=O)=O [31D-Fraction A]
IC90 (HIV; [4]): 30.3 nM

Structure (SMILES): C[C@H]1[C@@H](OC(=O)N[C@@H](CSc2ccccc2)[C@H](O)CN2C[C@H]3CCS[C@H]3C[C@H]2C(=O)NC(C)(C)C)CCS1(=O)=O [31D-Fraction B]
IC90 (HIV; [4]): 31.4 nM

IC50 (HIV-1 Protease): 7.28 nM
Structure (SMILES): C[C@@H]1[C@@H](OC(=O)N[C@@H](CSc2ccccc2)[C@H](O)CN2C[C@H]3CCS[C@H]3C[C@H]2C(=O)NC(C)(C)C)CCS1(=O)=O [34-Fraction A]
IC90 (HIV; [2]): 45.2 nM

IC50 (HIV-1 Protease): 27.4 nM
Structure (SMILES): C[C@H]1[C@H](OC(=O)N[C@@H](CSc2ccccc2)[C@H](O)CN2C[C@H]3CCS[C@H]3C[C@H]2C(=O)NC(C)(C)C)CCS1(=O)=O [34-Fraction B]
IC90 (HIV; [2]): 32.1 nM

Structure (SMILES): CC(C)(C)NC(=O)[C@@H]1C[C@@H]2SCC[C@@H]2CN1C[C@@H](O)[C@H](CSc1ccccc1)NC(=O)C[C@@H]1CCS(=O)(=O)C1 [Example 12, N-t-Butyl-octahydro-5[2R-hydroxy-3R-N(1',1'-dioxo-tetrahydrothiophen-3'R-ylmethylcarbonyl)amino-4-phenylthio-butyl]-(3aR,7aS)-thieno[3,2-c] pyridine-(6S)-carboxamide]
Fluorescence Assay IC50 (HIV-1 Protease; [1]): 0.44 ng/mL
IC90 (HIV; [4]): 96 nM

Structure (SMILES): CC(C)(C)NC(=O)[C@@H]1C[C@@H]2SCC[C@@H]2CN1C[C@@H](O)[C@H](CSc1ccccc1)NC(=O)[C@H](CC(N)=O)NC(=O)c1ccc2ccccc2n1 [Example 14C]
IC90 (HIV; [2]): 28 nM

IC50 (HIV-1 Protease; [1]): 13.5 nM
Structure (SMILES): CC(=O)N[C@H](CCS(C)(=O)=O)C(=O)N[C@@H](CSc1ccccc1)[C@H](O)CN1C[C@H]2CCS[C@H]2C[C@H]1C(=O)NC(C)(C)C [Example 15B, N-t-Butyl-octahydro-5[2R-hydroxy-3R-phenylthiomethyl-4-aza-5-oxo-6R-N(acetyl)amino-8-methylsulfonyl-octyl]-(3aR,7aS)-thieno[3,2-c]pyridine-(6S)-carboxamide]
IC90 (HIV; [2]): 7630 nM

inhibition at 0.00016 µg/mL (HIV-1 Protease; [3]): 60%
Structure (SMILES): CC(C)(C)NC(=O)[C@@H]1C[C@@H]2SCC[C@@H]2CN1C[C@@H](O)[C@H](Cc1ccccc1)NC(=O)[C@@H](CS(=O)(=O)c1ccc2ccccc2c1)NS(C)(=O)=O [Example 17B, N-t-Butyl-octahydro-5[2R-hydroxy-3S-phenylmethyl-4-aza-5-oxo-6S-N(methylsulfonyl)amino-7-naphth-2-ylsulfonyl-heptyl]-(3aR,7aS)-thieno[3,2-c]pyridine-(6S)-carboxamide]
IC90 (HIV; [2]): 78 nM

inhibition at 0.00016 µg/mL (HIV-1 Protease; [3]): 76%
Structure (SMILES): CC(C)(C)NC(=O)[C@@H]1C[C@@H]2SCC[C@@H]2CN1C[C@@H](O)[C@H](Cc1ccccc1)NC(=O)[C@@H](CS(=O)(=O)c1ccc2ccccc2c1)NC(=O)C(F)(F)F [Example 17C, N-t-Butyl-octahydro-5[2R-hydroxy-3S-phenylmethyl-4-aza-5-oxo-6S-N(trifluoromethylcarbonyl)amino-7-naphth-2-ylsulfonyl-heptyl]-(3aR,7aS)-thieno[3,2-c]pyridine-(6S)-carboxamide]
IC90 (HIV; [2]): 31 nM

IC50 (HIV-1 Protease; [1]): 0.224 nM
Structure (SMILES): CC(C)(C)NC(=O)[C@@H]1C[C@@H]2SCC[C@@H]2CN1C[C@@H](O)[C@H](Cc1ccccc1)NC(=O)[C@@H](CS(=O)(=O)c1ccc(F)cc1)NS(C)(=O)=O [Example 19B, N-t-Butyl-octahydro-5[2R-hydroxy-3S-phenylmethyl-4-aza-5-oxo-6S-N(methylsulfonyl)amino-7-p-fluorophenylsulfonyl-heptyl]-(3aR,7aS)-thieno[3,2-c]pyridine-(6S)-carboxamide]
IC90 (HIV; [2]): 233 nM

Structure (SMILES): CC(C)(C)NC(=O)[C@@H]1C[C@@H]2SCC[C@@H]2CN1C[C@@H](O)[C@H](Cc1ccccc1)NC(=O)[C@@H](CS(=O)(=O)c1ccc(F)cc1)NC(=O)C(F)(F)F [Example 19C, N-t-Butyl-octahydro-5[2R-hydroxy-3S-phenylmethyl-4-aza-5-oxo-6S-N(trifluoromethylcarbonyl)amino-7-p-fluorophenylsulfonyl-heptyl]-(3aR,7aS)-thieno[3,2-c]pyridine-(6S)-carboxamide]
inhibition at 0.00016 µg/mL (HIV-1 Protease): 85%
IC50 (HIV-1 Protease): 1.16 nM
IC90 (HIV; [2]): 52 nM

IC50 (HIV-1 Protease; [1]): 1.83 nM
Structure (SMILES): CC(=O)N[C@H](CS(=O)(=O)c1ccc(F)cc1)C(=O)N[C@@H](CSc1ccccc1)[C@H](O)CN1C[C@H]2CCS[C@H]2C[C@H]1C(=O)NC(C)(C)C [Example 21B, N-t-Butyl-octahydro-5[2R-hydroxy-3R-phenylthiomethyl-4-aza-5oxo-6S-N(acetyl)amino-7-p-fluorophenylsulfonyl-heptyl]-(3aR,7aS)-thieno[3,2-c]pyridine-(6S)-carboxamide]
IC90 (HIV; [2]): 78 nM

Structure (SMILES): CC(C)(C)NC(=O)[C@@H]1C[C@@H]2SCC[C@@H]2CN1C[C@@H](O)[C@H](Cc1ccccc1)NC(=O)[C@@H](CS(=O)(=O)c1cccc2cccnc12)NC(=O)C(F)(F)F [Example 24B, N-t-Butyl-octahydro-5[2R-hydroxy-3S-phenylmethyl-4-aza-5-oxo-6S-N(trifluoromethylcarbonyl)amino-7-quinolin-8-ylsulfonyl-heptyl]-(3aR,7aS)-thieno[3,2-c]pyridine-(6S)-carboxamide]
IC90 (HIV; [2]): 81.8 nM

Structure (SMILES): CC(C)[C@@H]1[C@H](OC(=O)N[C@@H](CSc2ccccc2)[C@H](O)CN2C[C@H]3CCS[C@H]3C[C@H]2C(=O)NC(C)(C)C)CCS1(=O)=O [Example 40D, N-t-Butyl-octahydro-5[2R-hydroxy-3R-N(1',1'-dioxo-2'R-isopropyl-tetrahydrothiophen-3'R-yloxycarbonyl)amino-4-phenylthio-)-butyl]-(3aR,7aS)-thieno[3,2-c] pyridine-(6S)-carboxamide methanesulfonate]
IC90 (HIV; [2]): 7.1 nM
